Test results as given in patent publication US6777389B1, “Cosmetic or dermatological use of 7-hydroxylated steroids in combination with elastin derived peptides” (Connective Tissue Imagineering LLC, priority 1998, dated 2004).

Experiments:
[1] = In-vitro oxygen radical assay with luminol and hydrogen peroxide (Example 2); type: biochemical; conditions: luminol pre-incubated with compound at 100 μg/ml
Description: The ability of a compound to scavenge free radicals implicates it as an antioxidizing agent that could help to reduce the natural oxidizing effects of aging. In a first test of whether DHEA or it derivatives have the ability to capture free radicals, an in-vitro oxygen radical assay was devised, The assay was run in quadruplicate to perfect the concentrations of controls as well as test the diluents (phosphate buffered saline (PBS) and DMSO) in which the DHEA and its derivatives were dissolved. The positive controls used were homocysteine and ascorbic acid (Vitamin C).

collagen content of skin = test: Collagen content of neonatal rat skin by hydroxyproline evaluation (Example 3); type: in vivo, neonatal male Sprague-Dawley rats; conditions: 0.5% in carrier, twice daily, 30 days, five animals per group
Description: (§1) Chemical alterations in the skins of neonatal male Sprague-Dawley rats.
(§2) Collagen and elastin contents were measured on dry, defatted, hair-free skin samples. Collagen contents were assessed through hydroxyproline evaluations in hydrolyzed, 0.1N hot sodium hydroxide extracts. Elastin contents were measured by HPLC evaluation of the contents of thermolysin-produced peptides in digests of the hot sodium hydroxide residue. Controls were both shaven and unshaven, the shaven receiving only the carrier twice daily.
(§3) Elastin contents were increased by all the compounds (28% for DHEA, 30% for the 7 hydroxy and the 7 hydroxy-isoandrosterone). In these studies statistical analysis of variance was significant at an alpha level of 0.01. Similar to the histologic observations, these chemistries are reversible. Collagen and elastin contents returned to near normal levels after cessation of treatment for 30 days.

elastin content of skin = test: Elastin content of neonatal rat skin by HPLC of thermolysin-produced peptides (Example 3); type: in vivo, neonatal male Sprague-Dawley rats; conditions: 0.5% in carrier, twice daily, 30 days, five animals per group
Description: as §1, §2, §3

human fibroblasts = test: Proliferation of human fibroblasts in culture, cell count (Example 6); type: cell-based; conditions: 72 hours of contact, control 190,667 ± 6,766
Description: Effects of 3β,7α-dihydroxy-5-androstene-17-one (7α-hydroxy-DHEA) on the proliferation of human fibroblasts in culture.
The cultures of human fibroblasts (person) were seeded on twenty-four site plates at the rate of 50,000 cells per site in a standard culture medium (DMEM, gentamycine, amphotericine B, penicillin, L-glutamine, 10% SVF). The tests were carried out on four series of three sites. After twenty-four hours, the fibroblasts adhered to the support and three series were treated with 7α-hydroxy-DHEA at concentrations of 10^−6 M, 6. 10^−6 M and 10^−7 M. The fourth series only contained the vector (ethanol). The media were renewed daily, and at ninety-six hours (seventy-two hours of test contact with the 7α-hydroxy-DHEA), the fibroblasts were counted on a Malassez cell in the presence of blue trypan.

human keratinocytes [2] = test: Viability of human keratinocytes in culture, MTT test (Example 5); type: cell-based
Description: Effects of 3β,7α-dihydroxy-5-androstene-17-one (7α-hydroxy-DHEA) on the viability of human keratinocytes in culture.
Human keratinocytes were obtained from surgical items and were cultivated in a monolayer until preconfluence. The 7α-hydroxy-DHEA was administered to these cultures at various concentrations in ethanolic solution (10%), each concentration being tested eight times. Controls were carried out with ethanol alone (10%). After twenty-four hours, the viability of the keratinocytes was measured by testing with MTT (3-(4,5-dimethylthiazol-2-yl)-2,5 diphenyl tetrazolium bromide) where the mitochondrial dehydrogenase succinate converts the MTT into blue crystals of formazan soluble in DMSO (Mosmann, J. Immunol. Methods 65: 55-63, 1983). The cellular viability is calculated according to the formula:
Any value greater than 100 indicates a product that encourages cellular viability.

thymocytes = test: Glucocorticoid-induced apoptosis of thymocytes, flow cytometry with propidium iodide (Example 4); type: cell-based, mouse C57BL/6; conditions: 6 hours
Description: Effects of 3β,7α-dihydroxy-5-androstene-17-one (7α-hydroxy-DHEA) and of 3β,7α-dihydroxy-5α-androstane-17-one (7α-hydroxy-ISOA) on the cellular apoptosis induced by glucocorticoids.
The thymus of a mouse C57BL/6 age four weeks was removed. Culture of the thymocytes was carried out for 6 hours in a RPMI 1640 medium and in the presence or in the absence of the steroid tested. The apoptosis (fragmentation of the DNA) was measured by flow cytometry after marking with propidium iodide. The apoptotic phenomenon was controlled by electrophoresis of the DNA developed by ethidium bromide according to the traditional technique (observation of ladders of 200 pairs of bases).

human keratinocytes [3] = test: Anti-radical effect on UVA-irradiated human keratinocyte suspension, lipid peroxide chemiluminescence (Example 7); type: cell-based; conditions: UVA irradiated 30 minutes, 10^−6 M
Text: The anti-radical effects of 3β,7α-dihydroxy-5-androstene-17-one (7α-hydroxy-DHEA) on a suspension of human keratinocytes.
Keratinocytes from a healthy donor were cultivated to the subconfluent stage in a specific medium (KGM) for the proliferation of keratinocytes. The suspensions obtained were split up, in triplicate, into four series, of which three were irradiated for thirty minutes with a lamp […] UVA so as to speed up the production of free radicals. Among the three irradiated series, one contained Vitamins C and E (0.7%) and was used as a protection reference, one contained 7α-hydroxy-DHEA at 10^−6 M and the last served as a control. Table D below reports on the measurement of the anti-radical effects.
The free radicals produced generate lipoid peroxides which are measured by chemiluminescence (Belghmi et al. J Biolum. Chemilum. 2: 113-119, 1982). The effectiveness of the 7α-hydroxy-DHEA was calculated on the basis of non-irradiated controls and the protection reference.

rat skin dermal layer = test: Histologic examination of H&E stained rat skin cross sections (Example 1); type: in vivo
Text: 7 hydroxy DHEA and 7 hydroxy isoandrosterone treated rat skin.
Upon histologic examination of hematoxylin and eosin (H&E) stained rat skin cross sections, a striking physical change was noted. […] This finding was consistent and most pronounced when the parent compound (DHEA) was used on young, healthy rats. However, it also occurred in replicate experiments when the derivatives were used. […] The latter two findings support the toxicologic studies, done concomitantly, which found no significant toxicity when the compounds were used at 0.5% concentration in a suitable carrier applied twice daily (12 hour intervals) for 30 days. […] A subset of experimental animals within each treatment group were left untreated for 30 days. Upon examination, treated skin sections were indistinguishable from the untreated.

[4] = tested on: elastin content of the skin; test: Elastin content of rat skin after 30 days of topical treatment (FIG. 1); type: in vivo, Sprague-Dawley male rat; conditions: topical 5% concentration of DHEA, similar time period, three animals
Text: In FIG. 1, S CONTR represents the Shaven Control and US CONTR represents the Unshaven Control. FIG. 1 illustrates that the present invention has the advantageous qualities of enhancing the softness or elasticity of the skin by increasing the endogenous production of elastin in the skin. The present invention is also directed to a method of improving the texture of skin, specifically the physical appearance of the skin by improving the endogenous production of elastin. The method of the present invention employs any of a number of known administrative routes such as oral, IV, subcutaneous, transcutaneous, and topical administration. […]
It is preferable that the topical administration of the composition of the present invention occur repeatedly over a predetermined time period, preferably in the range of about one week to about one month. […] Testing illustrated that the endogenous elastin (measured by microgram (μg) Elastin per milligram (mg) Skin Fat Free Dry weight) of each of the rats to which the administration was applied doubled over that of a control sample and to a sample which was treated with a 5% concentration of DHEA over a similar time period. […] The data of FIG. 1 are significant at an alpha level less than 0.001 as determined by analysis of variance. […]

[5] = steroid 10^−5 M with Dexamethasone 10^−5 M
[6] = steroid 10^−6 M with Dexamethasone 10^−6 M

Structure (SMILES): C[C@]12CC[C@H](O)CC1=C[C@@H](O)[C@@H]1[C@@H]2CC[C@]2(C)C(=O)CC[C@@H]12 [7α-hydroxy-DHEA, 3β,7α-dihydroxy-5-androstene-17-one]
- reduction of light emission from luminol [1]: did not cause any reduction
- collagen increase (collagen content of skin): 24%
- elastin content increase (elastin content of skin): 30%
- Number of Fibroblasts (human fibroblasts; 5 · 10^−6 M): 258,667 ± 3,351
- Number of Fibroblasts (human fibroblasts; 10^−6 M): 268,000 ± 27,154
- Number of Fibroblasts (human fibroblasts; 10^−7 M): 230,667 ± 8,511
- Viability of the keratinocytes (human keratinocytes [2]; 5 · 10^−5 M, 24 hours, control = 100): 111 ± 7%
- Viability of the keratinocytes (human keratinocytes [2]; 5 · 10^−6 M, 24 hours, control = 100): 147 ± 9%
- Viability of the keratinocytes (human keratinocytes [2]; 5 · 10^−7 M, 24 hours, control = 100): 139 ± 3%
- cytotoxicity (human keratinocytes [2]; 10^−4 M to 10^−8 M): no cytotoxicity was observed
- Viability of the keratinocytes (human keratinocytes [2]; 10^−4 M, 24 hours, control = 100): 124 ± 10%
- Viability of the keratinocytes (human keratinocytes [2]; 10^−5 M, 24 hours, control = 100): 119 ± 7%
- Viability of the keratinocytes (human keratinocytes [2]; 10^−6 M, 24 hours, control = 100): 154 ± 6%
- Viability of the keratinocytes (human keratinocytes [2]; 10^−7 M, 24 hours, control = 100): 147 ± 5%
- Viability of the keratinocytes (human keratinocytes [2]; 10^−8 M, 24 hours, control = 100): 127 ± 3%
- effect on viability of human keratinocytes (human keratinocytes [2]; concentrations between 10^−4 M and 10^−8 M): significantly increases the viability
- Apoptotic cells (thymocytes; [5]): 48.6%
- Apoptotic cells (thymocytes; [6]): 58.8%
- Effectiveness (human keratinocytes [3]; calculated from non-irradiated controls and protection reference): 90%
- Chemiluminescence (human keratinocytes [3]; irradiated controls 427,750 ± 137,322): 44,164 ± 13,303

Structure (SMILES): C[C@]12CC[C@H](O)C[C@@H]1C[C@@H](O)[C@@H]1[C@@H]2CC[C@]2(C)C(=O)CC[C@@H]12 [7α-hydroxy-ISOA, 3β,7α-dihydroxy-5α-androstane-17-one]
- reduction of light emission from luminol [1]: 15%
- collagen increase (collagen content of skin): 24%
- elastin content increase (elastin content of skin): 30%
- Apoptotic cells (thymocytes; [5]): 46.3%
- Apoptotic cells (thymocytes; [6]): 72.0%

Structure (SMILES): C[C@]12CC[C@H](O)CC1=CC[C@@H]1[C@@H]2CC[C@]2(C)C(=O)CC[C@@H]12 [DHEA, 3β-hydroxy-5-androstene-17-one, reference compound]
- reduction of light emission from luminol [1]: 20%
- thickness of the dermal layer of skin (rat skin dermal layer; 0.5% in carrier, twice daily, 30 days, vs shaven and unshaven untreated controls): thickened to nearly twice that of the untreated controls
- reversibility of dermal thickening (rat skin dermal layer; animals left untreated for 30 days after treatment): completely reversible
- collagen decrease (collagen content of skin): 16%
- elastin content increase (elastin content of skin): 28%
- endogenous elastin (mean) [4]: 1.753 microgram (μg) Elastin per milligram (mg) Skin Fat Free Dry weight
- Viability of the keratinocytes (human keratinocytes [2]; other comparative tests, concentration not given): 100±5
- Apoptotic cells (thymocytes; [5]): 51.4%
- Apoptotic cells (thymocytes; [6]): 39.0%
